Laboratory results as given in the supplement of paper PMC11451515.

Legend:
Settings in all cases: 48 h
P12-Ichikawa [1] = assay: cell viability relative to DMSO control; higher = less cytotoxic
Method in brief: (§1)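 NOMO1 or SEM (500 cells/well) or P12-Ichikawa (1000 cells/well) leukemia cells were adapted for at least four passages in each medium. They were seeded in 1536-well plates (5 μl) and pin-dosed with library compounds in DMSO over an 11-point threefold series, 47 μM to 0.79 nM. CellTiter-Glo One luminescence was read after 48 h at 37°C. Viability is the per-plate percentage relative to DMSO wells, with cell-free wells as background.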

NOMO1 [2] = assay: as above
Method in brief: as §1

SEM cells [3] = assay: as above
Method in brief: as §1

P12-Ichikawa [4] = assay: AUC of viability dose-response curve (% viability x log10 dose units); higher = less sensitive
Method in brief: (§2)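 Library compounds in DMSO were applied for 48 h at 37°C at 11 threefold doses (47 μM to 0.79 nM) to medium-adapted leukemia cells in 1536-well plates holding 500 or 1000 cells/well. Luminescence from CellTiter-Glo One was normalised plate by plate against DMSO and cell-free wells. Area under the curve came from trapezoidal integration of a log-logistic fit, after scaling curves that rose above full viability and discarding those that failed quality control. The fit had four parameters and used log10 doses.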

NOMO1 [5] = assay: as above
Method in brief: as §2

SEM cells [6] = assay: as above
Method in brief: as §2

O=[S+]([O-])(NCCNC/C=C/c1ccc(Br)cc1)c1cccc2cnccc12
cell viability [%]
Settings | NOMO1 [2] | P12-Ichikawa [1] | SEM cells [3]
HPLM + 10% dialyzed FBS, 0.000781 µM | 110 | 108 | 97.5
HPLM + 10% dialyzed FBS, 0.00234 µM | 114 | 110 | 94.8
HPLM + 10% dialyzed FBS, 0.00702 µM | 109 | 102 | 97.5
HPLM + 10% dialyzed FBS, 0.0211 µM | 81.5 | 105 | 42.4
HPLM + 10% dialyzed FBS, 0.0632 µM | 101 | 107 | 101
HPLM + 10% dialyzed FBS, 0.19 µM | 105 | 107 | 89.5
HPLM + 10% dialyzed FBS, 0.569 µM | 104 | 106 | 91.1
HPLM + 10% dialyzed FBS, 1.71 µM | 97.5 | 100 | 82.3
HPLM + 10% dialyzed FBS, 5.12 µM | 95.4 | 97 | 68.7
HPLM + 10% dialyzed FBS, 15.4 µM | 79.3 | 95.3 | 43.1
HPLM + 10% dialyzed FBS, 46.1 µM | 69.5 | 95.8 | 48.2
RPMI 5 mM glucose + 10% FBS, 0.000781 µM | 98.4 | 99.1 | 115
RPMI 5 mM glucose + 10% FBS, 0.00234 µM | 88.6 | 108 | 119
RPMI 5 mM glucose + 10% FBS, 0.00702 µM | 92.8 | 96.4 | 115
RPMI 5 mM glucose + 10% FBS, 0.0211 µM | 105 | 89 | 48.9
RPMI 5 mM glucose + 10% FBS, 0.0632 µM | 91.3 | 97.6 | 114
RPMI 5 mM glucose + 10% FBS, 0.19 µM | 97.6 | 108 | 131
RPMI 5 mM glucose + 10% FBS, 0.569 µM | 96.1 | 102 | 105
RPMI 5 mM glucose + 10% FBS, 1.71 µM | 98.8 | 99.2 | 103
RPMI 5 mM glucose + 10% FBS, 5.12 µM | 84 | 96.6 | 62.5
RPMI 5 mM glucose + 10% FBS, 15.4 µM | 87.5 | 81.5 | 58.4
RPMI 5 mM glucose + 10% FBS, 46.1 µM | 85.6 | 72 | 43.7
RPMI 5 mM glucose + 10% dialyzed FBS, 0.000781 µM | 103 | 95.9 | 95.5
RPMI 5 mM glucose + 10% dialyzed FBS, 0.00234 µM | 100 | 95.6 | 96.6
RPMI 5 mM glucose + 10% dialyzed FBS, 0.00702 µM | 90.7 | 103 | 93.8
RPMI 5 mM glucose + 10% dialyzed FBS, 0.0211 µM | 78.4 | 96.2 | 45.3
RPMI 5 mM glucose + 10% dialyzed FBS, 0.0632 µM | 97.6 | 99.6 | 91.6
RPMI 5 mM glucose + 10% dialyzed FBS, 0.19 µM | 89.9 | 101 | 87.7
RPMI 5 mM glucose + 10% dialyzed FBS, 0.569 µM | 89.1 | 102 | 83.8
RPMI 5 mM glucose + 10% dialyzed FBS, 1.71 µM | 85.3 | 103 | 74.5
RPMI 5 mM glucose + 10% dialyzed FBS, 5.12 µM | 89.7 | 95.8 | 56.4
RPMI 5 mM glucose + 10% dialyzed FBS, 15.4 µM | 74.3 | 77 | 41.6
RPMI 5 mM glucose + 10% dialyzed FBS, 46.1 µM | 81.7 | 77.8 | 34.9

AUC of viability dose-response curve
Settings | NOMO1 [5] | P12-Ichikawa [4] | SEM cells [6]
HPLM + 10% dialyzed FBS | 452 | 462 | 377
RPMI 5 mM glucose + 10% FBS | 446 | 460 | 418
RPMI 5 mM glucose + 10% dialyzed FBS | 425 | 458 | 354
